Test results reported in ChEMBL document CHEMBL5154681, “Small Amphiphilic Peptides: Activity Against a Broad Range of Drug-Resistant Bacteria and Structural Insight into Membranolytic Properties” (J Med Chem, 2022).
Converted amounts (≈) assume the structure as drawn.

Tests used:
Staphylococcus aureus [1] = test: Antibacterial activity against methicillin resistant Staphylococcus aureus ATCC BAA-1556 incubated for 24 hrs by microtiter plate method; format: functional
Pseudomonas aeruginosa = test: Antibacterial activity against Pseudomonas aeruginosa ATCC 27883 incubated for 24 hrs by microtiter plate method; format: functional; details: 24 h
Erythrocyte = test: Hemolytic activity in human RBC assessed as hemolysis incubated for 2 hrs by spectrophotometer analysis; format: toxicity, cell-based; details: erythrocyte, 2 h
Streptococcus pneumoniae [2] = test: Antibacterial activity against […] ATCC 49619 incubated for 24 hrs by microtiter plate method; format: functional
Bacillus subtilis = test: Antibacterial activity against Bacillus subtilis ATCC 6633 incubated for 24 hrs by microtiter plate method; format: functional
Enterococcus faecalis [3] = test: Antibacterial activity against Enterococcus faecalis ATCC 29212 incubated for 24 hrs by microtiter plate method; format: functional
Streptococcus pneumoniae [4] = test: Antibacterial activity against multidrug resistant […] ATCC 700677 incubated for 24 hrs by microtiter plate method; format: functional
Enterococcus faecalis [5] = test: Antibacterial activity against vancomycin-resistant Enterococcus faecalis ATCC 51575 incubated for 24 hrs by microtiter plate method; format: functional
Enterococcus faecium [6] = test: Antibacterial activity against Enterococcus faecium ATCC 27270 incubated for 24 hrs by microtiter plate method; format: functional
Enterococcus faecium [7] = test: Antibacterial activity against vancomycin-resistant Enterococcus faecium ATCC 700221 incubated for 24 hrs by microtiter plate method; format: functional
Bacillus cereus = test: Antibacterial activity against Bacillus cereus ATCC 13061 incubated for 24 hrs by microtiter plate method; format: functional
Escherichia coli = test: Antibacterial activity against Escherichia coli ATCC 25922 incubated for 24 hrs by microtiter plate method; format: functional; details: 24 h
Staphylococcus aureus [8] = test: Antibacterial activity against Staphylococcus aureus ATCC 29213 incubated for 24 hrs by microtiter plate method; format: functional

| Compound | MIC (Staphylococcus aureus [1]; 24 h) | MIC (Pseudomonas aeruginosa) | HC50 (Erythrocyte) | MIC (Streptococcus pneumoniae [2]) | MIC (Bacillus subtilis) | MIC (Enterococcus faecalis [3]) | MIC (Streptococcus pneumoniae [4]) | MIC (Enterococcus faecalis [5]) | MIC (Enterococcus faecium [6]) | MIC (Enterococcus faecium [7]) | MIC (Bacillus cereus) | MIC (Staphylococcus aureus [1]) | MIC (Escherichia coli) | MIC (Staphylococcus aureus [8]) |
| --- | --- | --- | --- | --- | --- | --- | --- | --- | --- | --- | --- | --- | --- | --- |
| N=C(N)NCCC[C@@H]1NC(=O)[C@H](CCCNC(=N)N)NC(=O)[C@H](C(c2ccccc2)c2ccccc2)NC(=O)[C@H](C(c2ccccc2)c2ccccc2)NC(=O)[C@H](CCCNC(=N)N)NC(=O)[C@H](CCCNC(=N)N)NC(=O)[C@H](C(c2ccccc2)c2ccccc2)NC1=O (stereo in doubt; 17C) | 12.5 µg/mL (≈ 9.66 µM) | >100 µg/mL | 145 µg/mL | – | – | – | – | – | – | – | – | – | – | – |
| CN[C@H](CC(C)C)C(=O)N[C@H]1C(=O)N[C@@H](CC(N)=O)C(=O)N[C@H]2C(=O)N[C@H]3C(=O)N[C@H](C(=O)N[C@H](C(=O)O)c4cc(O)cc(O)c4-c4cc3ccc4O)[C@H](O)c3ccc(c(Cl)c3)Oc3cc2cc(c3O[C@@H]2O[C@H](CO)[C@@H](O)[C@H](O)[C@H]2O[C@H]2C[C@](C)(N)[C@H](O)[C@H](C)O2)Oc2ccc(cc2Cl)[C@H]1O [VANCOMYCIN] | – | – | – | 3.1 µg/mL (≈ 2.14 µM) | 0.7 µg/mL (≈ 0.483 µM) | 0.7 µg/mL (≈ 0.483 µM) | 1.5 µg/mL (≈ 1.04 µM) | > 50 µg/mL | 1.5 µg/mL (≈ 1.04 µM) | > 50 µg/mL | 0.7 µg/mL (≈ 0.483 µM) | – | – | – |
| N=C(N)NCCC[C@@H]1NC(=O)[C@H](CCCNC(=N)N)NC(=O)[C@H](Cc2ccc3ccccc3c2)NC(=O)[C@H](Cc2ccc3ccccc3c2)NC(=O)[C@H](CCCNC(=N)N)NC(=O)[C@H](CCCNC(=N)N)NC(=O)[C@H](Cc2ccc3ccccc3c2)NC1=O (stereo in doubt; 19C) | – | 50 µg/mL (≈ 41.1 µM) | 110 µg/mL | – | – | – | – | – | – | – | – | 6.2 µg/mL (≈ 5.1 µM) | 50 µg/mL (≈ 41.1 µM) | 6.2 µg/mL (≈ 5.1 µM) |
